Reference: ChEMBL document CHEMBL1148870, “Novel inhibitors of VEGF receptors-1 and -2 based on azole-5-carboxamide templates” (Bioorg Med Chem Lett, 2007)
pIC50: −log10 of the molar value.

Tests used:
[1] = molecular target: Vascular endothelial growth factor receptor 1 (Homo sapiens, UniProt P17948); experiment: Inhibition of VEGFR1 assessed as inhibition of phosphorylation in presence of 2 uM ATP by HTRF assay; assay type: functional
[2] = molecular target: T1, Vascular endothelial growth factor receptor 2 (Homo sapiens, UniProt P35968); experiment: Inhibition of VEGFR2 assessed as inhibition of phosphorylation in presence of 2 uM ATP by HTRF assay; assay type: functional
[3] = molecular target: T1, Vascular endothelial growth factor receptor 2; experiment: Inhibition of VEGFR2 assessed as inhibition of phosphorylation in human 293 cells by cell-based ELISA; assay type: functional, HEK293
[4] = molecular target: Insulin-like growth factor 1 receptor (Homo sapiens) (UniProt P08069); experiment: Inhibition of IGF1R at 10 uM; design: scale not given: the % may be the effect or the level left
Homo sapiens [5] = species: Homo sapiens; experiment: Inhibition of InR at 10 uM; design: scale not given: the % may be the effect or the level left
[6] = molecular target: Fibroblast growth factor receptor 1 (Homo sapiens) (UniProt P11362); experiment: Inhibition of FGFR1 at 10 uM; design: scale not given: the % may be the effect or the level left
[7] = molecular target: Receptor-type tyrosine-protein kinase FLT3 (Homo sapiens) (UniProt P36888); experiment: Inhibition of Flt3 at 10 uM; design: scale not given: the % may be the effect or the level left
[8] = molecular target: Vascular endothelial growth factor receptor 3 (Homo sapiens) (UniProt P35916); experiment: Inhibition of Flt4 at 10 uM; design: scale not given: the % may be the effect or the level left
[9] = molecular target: Epidermal growth factor receptor (Homo sapiens) (UniProt P00533); experiment: Inhibition of ErbB1 at 10 uM; design: scale not given: the % may be the effect or the level left
[10] = molecular target: Receptor tyrosine-protein kinase erbB-2 (Homo sapiens) (UniProt P04626); experiment: Inhibition of ErbB2/Her2 at 10 uM; design: scale not given: the % may be the effect or the level left
[11] = molecular target: Hepatocyte growth factor receptor (Homo sapiens) (UniProt P08581); experiment: Inhibition of cMet at 10 uM; design: scale not given: the % may be the effect or the level left
Homo sapiens [12] = species: Homo sapiens; experiment: Inhibition of PKA at 10 uM; design: scale not given: the % may be the effect or the level left
[13] = molecular target: Glycogen synthase kinase-3 beta (Homo sapiens) (UniProt P49841); experiment: Inhibition of GSK3-beta at 10 uM; design: scale not given: the % may be the effect or the level left
[14] = molecular target: RAC-alpha serine/threonine-protein kinase (Homo sapiens) (UniProt P31749); experiment: Inhibition of PKB/Akt at 10 uM; design: scale not given: the % may be the effect or the level left
Homo sapiens [15] = species: Homo sapiens; experiment: Inhibition of bcr-Abl at 10 uM; design: scale not given: the % may be the effect or the level left
Homo sapiens [16] = species: Homo sapiens; experiment: Inhibition of Cdk1 at 10 uM; design: scale not given: the % may be the effect or the level left
[17] = molecular target: RAF proto-oncogene serine/threonine-protein kinase (Homo sapiens) (UniProt P04049); experiment: Inhibition of Raf1 at 10 uM; design: scale not given: the % may be the effect or the level left
[18] = molecular target: Cyclin-dependent kinase 2 (Homo sapiens) (UniProt P24941); experiment: Inhibition of Cdk2 at 10 uM; design: scale not given: the % may be the effect or the level left
[19] = Passive diffusion assessed as intrinsic permeability across Caco-2 cell membrane; assay type: ADME, cell-based; details: human, read-out: permeability (converted)
Caco-2 = experiment: Passive diffusion assessed as absorption potential across Caco-2 cell membrane; assay type: ADME, cell-based; details: human

Sequence of Vascular endothelial growth factor receptor 1 (P17948 whole entry): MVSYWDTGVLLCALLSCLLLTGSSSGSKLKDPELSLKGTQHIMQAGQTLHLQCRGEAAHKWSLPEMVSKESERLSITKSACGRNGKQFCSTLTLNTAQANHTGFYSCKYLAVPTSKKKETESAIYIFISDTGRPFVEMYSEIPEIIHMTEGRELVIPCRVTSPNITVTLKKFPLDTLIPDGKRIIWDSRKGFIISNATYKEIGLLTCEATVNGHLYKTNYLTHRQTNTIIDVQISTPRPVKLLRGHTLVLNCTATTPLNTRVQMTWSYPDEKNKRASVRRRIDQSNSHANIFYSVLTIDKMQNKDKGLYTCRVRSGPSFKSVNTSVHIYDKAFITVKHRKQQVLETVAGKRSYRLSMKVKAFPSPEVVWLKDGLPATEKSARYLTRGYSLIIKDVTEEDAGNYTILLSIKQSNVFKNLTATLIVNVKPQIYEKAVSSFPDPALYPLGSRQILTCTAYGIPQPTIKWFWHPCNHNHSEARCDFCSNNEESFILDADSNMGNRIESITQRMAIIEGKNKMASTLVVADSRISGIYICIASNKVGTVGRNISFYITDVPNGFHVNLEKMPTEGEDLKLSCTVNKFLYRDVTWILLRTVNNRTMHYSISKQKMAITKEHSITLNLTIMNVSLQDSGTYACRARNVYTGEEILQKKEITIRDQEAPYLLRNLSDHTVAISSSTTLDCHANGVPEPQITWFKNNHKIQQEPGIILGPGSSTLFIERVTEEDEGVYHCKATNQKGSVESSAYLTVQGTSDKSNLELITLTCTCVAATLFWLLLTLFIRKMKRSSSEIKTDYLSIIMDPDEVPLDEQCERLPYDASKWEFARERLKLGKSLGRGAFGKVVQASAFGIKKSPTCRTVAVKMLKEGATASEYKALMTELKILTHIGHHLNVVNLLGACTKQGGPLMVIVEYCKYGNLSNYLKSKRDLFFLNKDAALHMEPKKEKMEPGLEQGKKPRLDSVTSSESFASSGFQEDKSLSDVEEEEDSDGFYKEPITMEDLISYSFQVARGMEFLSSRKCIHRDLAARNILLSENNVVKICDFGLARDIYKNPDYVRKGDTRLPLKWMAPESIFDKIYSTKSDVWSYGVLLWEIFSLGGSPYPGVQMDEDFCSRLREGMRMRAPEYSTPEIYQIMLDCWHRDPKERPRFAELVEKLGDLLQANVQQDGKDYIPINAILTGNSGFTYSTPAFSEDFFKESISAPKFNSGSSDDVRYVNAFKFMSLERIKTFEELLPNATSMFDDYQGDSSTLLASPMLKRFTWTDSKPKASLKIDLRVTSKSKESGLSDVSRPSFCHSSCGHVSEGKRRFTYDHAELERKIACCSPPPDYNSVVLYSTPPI
Sequence of Glycogen synthase kinase-3 beta (Homo sapiens) (P49841 whole entry, looked up): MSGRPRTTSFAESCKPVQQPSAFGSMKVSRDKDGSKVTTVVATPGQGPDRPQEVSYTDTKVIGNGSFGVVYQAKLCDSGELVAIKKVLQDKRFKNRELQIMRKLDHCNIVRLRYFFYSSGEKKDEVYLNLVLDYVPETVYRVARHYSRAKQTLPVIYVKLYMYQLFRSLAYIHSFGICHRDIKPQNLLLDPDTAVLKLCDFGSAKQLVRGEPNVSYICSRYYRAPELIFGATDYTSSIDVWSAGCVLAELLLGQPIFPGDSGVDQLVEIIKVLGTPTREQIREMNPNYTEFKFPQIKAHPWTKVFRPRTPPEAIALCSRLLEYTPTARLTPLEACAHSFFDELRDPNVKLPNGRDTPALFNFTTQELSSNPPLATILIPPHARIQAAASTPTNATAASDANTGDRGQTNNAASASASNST
T1 sequence (P35968 whole entry): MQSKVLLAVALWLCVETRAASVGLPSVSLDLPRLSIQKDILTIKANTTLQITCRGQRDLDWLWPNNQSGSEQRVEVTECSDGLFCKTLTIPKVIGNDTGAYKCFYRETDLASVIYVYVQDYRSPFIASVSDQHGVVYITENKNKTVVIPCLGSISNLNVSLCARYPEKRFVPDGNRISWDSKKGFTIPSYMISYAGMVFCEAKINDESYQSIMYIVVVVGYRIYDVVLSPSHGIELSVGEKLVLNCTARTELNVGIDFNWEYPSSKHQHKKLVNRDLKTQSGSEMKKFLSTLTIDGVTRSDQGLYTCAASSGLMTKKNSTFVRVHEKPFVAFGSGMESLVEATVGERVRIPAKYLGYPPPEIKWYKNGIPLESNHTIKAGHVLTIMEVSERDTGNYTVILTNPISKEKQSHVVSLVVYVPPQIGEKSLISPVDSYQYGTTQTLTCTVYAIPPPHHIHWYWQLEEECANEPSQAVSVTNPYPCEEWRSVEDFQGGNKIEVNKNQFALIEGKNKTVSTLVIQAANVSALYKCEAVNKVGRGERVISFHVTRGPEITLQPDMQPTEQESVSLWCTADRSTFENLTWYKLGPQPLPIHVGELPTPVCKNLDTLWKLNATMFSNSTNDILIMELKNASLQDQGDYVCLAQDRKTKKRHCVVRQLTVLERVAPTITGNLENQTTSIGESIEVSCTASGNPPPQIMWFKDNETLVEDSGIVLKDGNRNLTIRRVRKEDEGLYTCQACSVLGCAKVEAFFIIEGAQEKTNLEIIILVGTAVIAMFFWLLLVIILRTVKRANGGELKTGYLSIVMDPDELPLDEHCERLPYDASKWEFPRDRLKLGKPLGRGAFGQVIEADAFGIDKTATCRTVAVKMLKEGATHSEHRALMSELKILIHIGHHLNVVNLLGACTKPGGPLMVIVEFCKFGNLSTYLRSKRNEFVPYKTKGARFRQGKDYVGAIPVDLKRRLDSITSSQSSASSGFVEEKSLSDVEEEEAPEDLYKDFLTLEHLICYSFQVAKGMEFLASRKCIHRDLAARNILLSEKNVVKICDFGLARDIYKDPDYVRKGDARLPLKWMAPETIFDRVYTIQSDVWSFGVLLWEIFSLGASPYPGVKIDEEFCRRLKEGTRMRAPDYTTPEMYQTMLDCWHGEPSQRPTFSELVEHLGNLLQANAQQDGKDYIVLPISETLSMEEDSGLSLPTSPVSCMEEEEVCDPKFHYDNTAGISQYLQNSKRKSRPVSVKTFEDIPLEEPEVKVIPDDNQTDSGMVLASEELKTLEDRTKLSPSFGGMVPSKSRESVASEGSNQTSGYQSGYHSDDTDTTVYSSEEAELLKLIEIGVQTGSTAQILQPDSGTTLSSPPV
Sequence of Vascular endothelial growth factor receptor 3 (Homo sapiens) (P35916 whole entry): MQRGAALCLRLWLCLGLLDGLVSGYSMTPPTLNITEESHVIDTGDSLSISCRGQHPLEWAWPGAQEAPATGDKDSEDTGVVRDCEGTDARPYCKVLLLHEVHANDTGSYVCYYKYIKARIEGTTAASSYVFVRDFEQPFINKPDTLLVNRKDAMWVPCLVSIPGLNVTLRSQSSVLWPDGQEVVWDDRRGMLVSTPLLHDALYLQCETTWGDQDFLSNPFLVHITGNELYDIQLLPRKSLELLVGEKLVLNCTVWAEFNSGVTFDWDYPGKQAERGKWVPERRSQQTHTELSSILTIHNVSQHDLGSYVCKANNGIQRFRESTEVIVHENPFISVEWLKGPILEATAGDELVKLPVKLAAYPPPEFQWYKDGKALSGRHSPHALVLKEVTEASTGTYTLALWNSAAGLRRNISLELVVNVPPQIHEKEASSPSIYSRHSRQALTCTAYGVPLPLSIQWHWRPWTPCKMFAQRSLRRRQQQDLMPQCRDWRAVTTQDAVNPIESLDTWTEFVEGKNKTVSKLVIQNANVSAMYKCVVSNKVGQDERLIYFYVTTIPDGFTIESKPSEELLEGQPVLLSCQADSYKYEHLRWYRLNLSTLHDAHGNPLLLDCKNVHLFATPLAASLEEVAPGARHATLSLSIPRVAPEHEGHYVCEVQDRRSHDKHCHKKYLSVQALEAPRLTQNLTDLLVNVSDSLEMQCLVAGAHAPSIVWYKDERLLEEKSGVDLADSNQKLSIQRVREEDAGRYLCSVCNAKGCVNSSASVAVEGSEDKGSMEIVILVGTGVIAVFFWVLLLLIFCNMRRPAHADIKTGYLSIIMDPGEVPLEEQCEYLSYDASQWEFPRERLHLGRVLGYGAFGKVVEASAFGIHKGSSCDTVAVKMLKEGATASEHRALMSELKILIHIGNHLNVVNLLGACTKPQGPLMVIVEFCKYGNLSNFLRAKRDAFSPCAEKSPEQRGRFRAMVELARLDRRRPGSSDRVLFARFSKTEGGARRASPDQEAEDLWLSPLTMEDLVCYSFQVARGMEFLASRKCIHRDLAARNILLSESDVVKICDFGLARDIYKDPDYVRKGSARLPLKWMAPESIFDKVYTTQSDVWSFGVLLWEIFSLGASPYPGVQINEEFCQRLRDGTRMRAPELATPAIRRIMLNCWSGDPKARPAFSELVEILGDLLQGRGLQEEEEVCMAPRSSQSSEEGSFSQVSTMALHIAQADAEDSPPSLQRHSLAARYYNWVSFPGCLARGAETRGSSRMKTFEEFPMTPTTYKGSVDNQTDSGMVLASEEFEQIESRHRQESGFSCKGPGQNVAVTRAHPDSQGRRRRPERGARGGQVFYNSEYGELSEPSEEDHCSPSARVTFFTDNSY
Sequence of RAC-alpha serine/threonine-protein kinase (Homo sapiens) (P31749 whole entry): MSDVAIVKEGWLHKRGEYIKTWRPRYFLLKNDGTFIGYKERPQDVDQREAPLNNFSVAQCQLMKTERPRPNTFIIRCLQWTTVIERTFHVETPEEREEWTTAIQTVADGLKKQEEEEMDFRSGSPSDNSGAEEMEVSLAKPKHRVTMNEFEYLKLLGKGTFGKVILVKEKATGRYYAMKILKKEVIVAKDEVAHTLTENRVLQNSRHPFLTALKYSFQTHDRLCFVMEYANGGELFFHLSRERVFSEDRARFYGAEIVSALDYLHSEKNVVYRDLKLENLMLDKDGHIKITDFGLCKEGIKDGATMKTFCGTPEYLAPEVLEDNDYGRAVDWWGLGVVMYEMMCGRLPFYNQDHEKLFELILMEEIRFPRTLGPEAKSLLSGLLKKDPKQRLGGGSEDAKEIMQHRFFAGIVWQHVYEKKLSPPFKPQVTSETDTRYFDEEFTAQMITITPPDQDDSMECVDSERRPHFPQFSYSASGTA

Row | SMILES | pIC50 [1] | pIC50 [2] | pIC50 [3] | Activity [4] | Activity (Homo sapiens [5]) | Activity [6] | Activity [7] | Activity [8] | Activity [9] | Activity [10] | Activity [11] | Activity (Homo sapiens [12]) | Activity [13] | Activity [14] | Activity (Homo sapiens [15]) | Activity (Homo sapiens [16]) | Activity [17] | Activity [18] | Papp [19] | Activity (Caco-2)
1 | O=C(Nc1ccc(Cl)cc1)c1nccn1CCc1ccncc1 | 6.03 | 6.42 | 5.88 | > 30% | > 30% | > 30% | > 30% | > 30% | < 30% | > 30% | > 30% | > 30% | > 30% | > 30% | > 30% | > 30% | > 30% | > 30% | – | –
2 | O=C(Nc1ccc(Cl)cc1)c1nc2ccccc2n1CCc1ccncc1 | < 5.00 | < 5.00 | < 5.00 | > 30% | > 30% | > 30% | > 30% | > 30% | < 30% | > 30% | > 30% | > 30% | > 30% | > 30% | > 30% | > 30% | > 30% | > 30% | – | –
3 | O=C(Nc1ccc(Cl)cc1)c1ccnn1CCc1cnoc1 | < 5.00 | < 5.00 | < 5.00 | > 30% | > 30% | > 30% | > 30% | > 30% | < 30% | > 30% | > 30% | > 30% | > 30% | > 30% | > 30% | > 30% | > 30% | > 30% | – | –
4 | Cc1nn(CCc2ccncc2)c(C(=O)Nc2ccc(OC(F)(F)F)cc2)c1C | < 5.00 | < 5.00 | < 5.00 | > 30% | > 30% | > 30% | > 30% | > 30% | < 30% | > 30% | > 30% | > 30% | > 30% | > 30% | > 30% | > 30% | > 30% | > 30% | – | –
5 | O=C(Nc1ccc(C(F)(F)F)c(Cl)c1)c1nccn1CCc1ccncc1 | 5.34 | 5.88 | 5.31 | > 30% | > 30% | > 30% | > 30% | > 30% | < 30% | > 30% | > 30% | > 30% | > 30% | > 30% | > 30% | > 30% | > 30% | > 30% | – | –
6 | O=C(Nc1ccc(Cl)cc1)c1nnnn1CCc1ccncc1 | 6.05 | 6.19 | 5.69 | > 30% | > 30% | > 30% | > 30% | > 30% | < 30% | > 30% | > 30% | > 30% | > 30% | > 30% | > 30% | > 30% | > 30% | > 30% | – | –
7 | O=C(Nc1ccc(OC(F)(F)F)cc1)c1nnnn1CCc1ccncc1 | 5.41 | 5.58 | 5.53 | > 30% | > 30% | > 30% | > 30% | > 30% | < 30% | > 30% | > 30% | > 30% | > 30% | > 30% | > 30% | > 30% | > 30% | > 30% | – | –
8 | O=C(Nc1ccc(Cl)cc1)c1ccnn1CCc1noc2ccccc12 | < 5.00 | < 5.00 | < 5.00 | > 30% | > 30% | > 30% | > 30% | > 30% | < 30% | > 30% | > 30% | > 30% | > 30% | > 30% | > 30% | > 30% | > 30% | > 30% | – | –

Continued, values first:

Row | pIC50 [1] | pIC50 [2] | pIC50 [3] | Activity [4] | Activity (Homo sapiens [5]) | Activity [6] | Activity [7] | Activity [8] | Activity [9] | Activity [10] | Activity [11] | Activity (Homo sapiens [12]) | Activity [13] | Activity [14] | Activity (Homo sapiens [15]) | Activity (Homo sapiens [16]) | Activity [17] | Activity [18] | Papp [19] | Activity (Caco-2) | SMILES
9 | 6.66 | 6.92 | 7.07 | > 30% | > 30% | > 30% | > 30% | > 30% | < 30% | > 30% | > 30% | > 30% | > 30% | > 30% | > 30% | > 30% | > 30% | > 30% | 9.7 ×10⁻⁶ cm/s | Active | CCc1ccc(NC(=O)c2ccnn2CCc2ccncc2)cc1
10 | 5.63 | 6.12 | 6.35 | > 30% | > 30% | > 30% | > 30% | > 30% | < 30% | > 30% | > 30% | > 30% | > 30% | > 30% | > 30% | > 30% | > 30% | > 30% | – | – | O=C(Nc1ccc(Cl)c(C(F)(F)F)c1)c1ccnn1CCc1ccncc1
11 | < 5.00 | < 5.00 | < 5.00 | > 30% | > 30% | > 30% | > 30% | > 30% | < 30% | > 30% | > 30% | > 30% | > 30% | > 30% | > 30% | > 30% | > 30% | > 30% | – | – | O=C(Nc1ccc(OC(F)(F)F)cc1)c1nc2ccccc2n1CCc1ccncc1
12 | 6.07 | 6.59 | 6.92 | > 30% | > 30% | > 30% | > 30% | > 30% | < 30% | > 30% | > 30% | > 30% | > 30% | > 30% | > 30% | > 30% | > 30% | > 30% | – | – | O=C(Nc1ccc(Cl)c(Cl)c1)c1ccnn1CCc1ccncc1
13 | < 5.00 | < 5.00 | < 5.00 | > 30% | > 30% | > 30% | > 30% | > 30% | < 30% | > 30% | > 30% | > 30% | > 30% | > 30% | > 30% | > 30% | > 30% | > 30% | – | – | O=C(Nc1ccc2cn[nH]c2c1)c1ccnn1CCc1ccncc1
14 | < 5.00 | 5.29 | < 5.00 | > 30% | > 30% | > 30% | > 30% | > 30% | < 30% | > 30% | > 30% | > 30% | > 30% | > 30% | > 30% | > 30% | > 30% | > 30% | – | – | O=C(Nc1ccc2[nH]ncc2c1)c1ccnn1CCc1ccncc1
15 | < 5.00 | < 5.00 | < 5.00 | > 30% | > 30% | > 30% | > 30% | > 30% | < 30% | > 30% | > 30% | > 30% | > 30% | > 30% | > 30% | > 30% | > 30% | > 30% | – | – | O=C(Nc1ccc(OCc2ccccc2)cc1)c1ccnn1CCc1ccncc1
16 | 5.65 | 6.02 | 5.81 | > 30% | > 30% | > 30% | > 30% | > 30% | < 30% | > 30% | > 30% | > 30% | > 30% | > 30% | > 30% | > 30% | > 30% | > 30% | – | – | O=C(Nc1ccc(-c2ccccc2)cc1)c1ccnn1CCc1ccncc1
